Common to all, as to type: physicochemical
The nature of data set [1]: Effect of crystal form on stability, high temperature test for 5 days (XRD). The note with it: 60° C., unsealed. How it is done: Evaluation on effect of crystal form on stability—high temperature test for 5 days
The amorphous form obtained in Example 11, crystal form IV obtained in Example 3, crystal form I obtained in Example 6, and crystal form II obtained in Example 8 were each taken 30 mg, in triplicate, put into a penicillin bottle, which is transferred, without being sealed, to QG 2003 ba incubation and drying oven, of which the temperature was adjusted to 60° C. The samples were taken after 5 days and tested by XRD.

The nature of data set [2]: Effect of crystal form on stability, high humidity test for 5 days (XRD). The note with it: room temperature, unsealed, desiccator with saturated potassium nitrate. How it is done:
Evaluation on effect of crystal form on stability—high humidity test for 5 days
The amorphous form obtained in Example 11, crystal form IV obtained in Example 3, crystal form I obtained in Example 6, and crystal form II obtained in Example 8 were each taken 30 mg, in triplicate, put into a penicillin bottle, which is transferred, without being sealed, at room temperature into a desiccator with saturated potassium nitrate at the bottom, and the samples were taken after 5 days and tested by XRD.

Data set [3] can be described thus: Stability in solution within 24 hours.
The nature of data set [4]: Solubility of crystal forms in different environments. An excerpt: The solubilities (μg/mL) of crystal form I in different environments are shown in […]
A short description of data set [5]: Accelerated stability test for 30 days (XRD). The note with it: 40° C., sealed bags. How it is done:
Evaluation for accelerated stability of crystal forms I, II and IV
Crystal form IV obtained in Example 3, crystal form I obtained in Example 6, and crystal form II obtained in Example 8 were each taken 30 mg, in triplicate, put into sealed bags, which is transferred into BPN-80CH CO2 incubator, of which the temperature was set at 40° C. The samples were taken after 30 days and tested by XRD.

Setting [6] is: Simulated fasting intestinal fluid (FaSSIF).
The mark [7] stands for this setting: Simulated postprandial intestinal fluid (FeSSIF).
The mark [8] stands for this setting: pH 1.2 hydrochloric acid solution.
Where [9] appears, read: pH 4.5 acetic acid-sodium acetate solution.
[10] abbreviates: Simulated fasting intestinal fluid (FaSSIF), R.T. (25° C.).
Where [11] appears, read: Simulated gastric fluid (SGF), 37° C.
[12] abbreviates: Simulated gastric fluid (SGF), R.T. (25° C.).
The mark [13] stands for this setting: Simulated gastric fluid (SGF), Ultrasonic.
[14] abbreviates: Simulated postprandial intestinal fluid (FeSSIF), 37° C.
The mark [15] stands for this setting: Simulated postprandial intestinal fluid (FeSSIF), R.T. (25° C.).
[16] abbreviates: Simulated postprandial intestinal fluid (FeSSIF), Ultrasonic.
The mark [17] stands for this setting: pH 1.2 hydrochloric acid solution, 37° C.
Setting [18] is: pH 1.2 hydrochloric acid solution, R.T. (25° C.).
Where [19] appears, read: pH 1.2 hydrochloric acid solution, Ultrasonic.
[20] abbreviates: pH 4.5 acetic acid-sodium acetate solution, 75° C.
The mark [21] stands for this setting: pH 4.5 acetic acid-sodium acetate solution, R.T. (25° C.).

Structures are written as SMILES. ≈ marks a conversion by molar mass, not a printed value. Entries after “also recorded” stand apart in the source; their conditions may differ. Read-outs that look alike come from different tables or passages of the source.

In the case of `COc1ncc(-c2ccc3ncc(C#N)c(N4CCOC[C@H]4C)c3c2)cc1NS(C)(=O)=O` [amorphous form, (R)-N-(5-(3-cyano-4-(3-methylmorpholinyl)quinolin-6-yl)-2-methoxypyridin-3-yl)methanesulfonamide, reference compound], the “solid-form stability, change of XRD after high temperature test” value in data set [1] is “obvious crystal transformation; also recorded: significant crystal transformation”. Moreover, in data set [2], the “solid-form stability, change of XRD after high humidity test” value is given as “obvious crystal transformation; also recorded: significant crystal transformation”.
As usually defined, the solubility is the dissolved amount per volume that the medium holds. For `COc1ncc(-c2ccc3ncc(C#N)c(N4CCOC[C@H]4C)c3c2)cc1NS(C)(=O)=O` [crystal form I, (R)-N-(5-(3-cyano-4-(3-methylmorpholinyl)quinolin-6-yl)-2-methoxypyridin-3-yl)methanesulfonamide], the “solid-form stability, change of XRD after high temperature test” value in data set [1] is listed as “barely no change”; in data set [1] (listed as Crystal form I) it was “stable”. For the same compound, the Stability result in data set [3] (setting [6]), in data set [3] (Simulated gastric fluid (SGF)), in data set [3] (setting [7]), in data set [3] (Water), in data set [3] (setting [8]) and in data set [3] (setting [9]) was “Stable within” each time. Besides, the Stability result in data set [3] (pH 6.8 PBS solution) is given as “Stable within”. In addition, the “solid-form stability, change of XRD after high humidity test” value in data set [2] was “barely no change”; in data set [2] (listed as Crystal form I), “stable”. Besides, the solubility in data set [4] (setting [10]) is 2.07 µg/mL (≈ 4.56 µM); in data set [4] (setting [11]), 167.38 µg/mL (≈ 369 µM); in data set [4] (setting [12]), 99.81 µg/mL (≈ 220 µM); in data set [4] (setting [13]), 119.65 µg/mL (≈ 264 µM); in data set [4] (setting [14]), 11.35 µg/mL (≈ 25 µM); in data set [4] (setting [15]), 8.09 µg/mL (≈ 17.8 µM). In addition, the solubility in data set [4] (setting [16]) is 9.46 µg/mL (≈ 20.9 µM); in data set [4] (pH 1.2 hydrochloric acid solution, 75 °C, pH 1.2, simulated gastric fluid, thermodynamic from solid, pH 1.2 hydrochloric acid solution, 75° C., read-out: solubility), 868 µg/mL (≈ 1910 µM); in data set [4] (setting [17]), 404.30 µg/mL (≈ 891 µM); in data set [4] (setting [18]), 275.20 µg/mL (≈ 607 µM); in data set [4] (setting [19]) it was 294.60 µg/mL (≈ 650 µM); in data set [4] (pH 4.5 acetic acid-sodium acetate solution, 37 °C, pH 4.5, aqueous buffer, thermodynamic from solid, pH 4.5 acetic acid-sodium acetate solution, 37° C., read-out: solubility), 1.67 µg/mL (≈ 3.68 µM). Also, the solubility in data set [4] (pH 4.5 acetic acid-sodium acetate solution, pH 4.5, aqueous buffer, thermodynamic from solid, pH 4.5 acetic acid-sodium acetate solution, Ultrasonic, read-out: solubility) was found to be 1.56 µg/mL (≈ 3.44 µM); in data set [4] (setting [20]), 1.55 µg/mL (≈ 3.42 µM); in data set [4] (setting [21]), 1.29 µg/mL (≈ 2.84 µM); in data set [4] (pH 6.8 PBS solution, 25 °C, pH 6.8, aqueous buffer, thermodynamic from solid, pH 6.8 PBS solution, R.T. (25° C.), read-out: solubility) it was 3.58 µg/mL (≈ 7.89 µM); in data set [4] (pH 6.8 PBS solution, 37 °C, pH 6.8, aqueous buffer, thermodynamic from solid, pH 6.8 PBS solution, 37° C., read-out: solubility) it was 1.51 µg/mL (≈ 3.33 µM); in data set [4] (pH 6.8 PBS solution, 75 °C, pH 6.8, aqueous buffer, thermodynamic from solid, pH 6.8 PBS solution, 75° C., read-out: solubility), 1.41 µg/mL (≈ 3.11 µM). In addition, the solubility in data set [4] (pH 6.8 PBS solution, pH 6.8, aqueous buffer, thermodynamic from solid, pH 6.8 PBS solution, Ultrasonic, read-out: solubility) was 2.79 µg/mL (≈ 6.15 µM); in data set [4] (simulated fasting intestinal fluid (FaSSIF), 37 °C, fassif, thermodynamic from solid, Simulated fasting intestinal fluid (FaSSIF), 37° C., read-out: solubility), 2.87 µg/mL (≈ 6.33 µM); in data set [4] (simulated fasting intestinal fluid (FaSSIF), 75 °C, fassif, thermodynamic from solid, Simulated fasting intestinal fluid (FaSSIF), 75° C., read-out: solubility), 8.64 µg/mL (≈ 19.1 µM); in data set [4] (simulated fasting intestinal fluid (FaSSIF), fassif, thermodynamic from solid, Simulated fasting intestinal fluid (FaSSIF), Ultrasonic, read-out: solubility), 4.76 µg/mL (≈ 10.5 µM); in data set [4] (simulated gastric fluid (SGF), 75 °C, simulated gastric fluid, thermodynamic from solid, Simulated gastric fluid (SGF), 75° C., read-out: solubility) it was 432 µg/mL (≈ 952 µM); in data set [4] (simulated postprandial intestinal fluid (FeSSIF), 75 °C, fessif, thermodynamic from solid, Simulated postprandial intestinal fluid (FeSSIF), 75° C., read-out: solubility), 18.9 µg/mL (≈ 41.7 µM). For the same compound, the solubility amounted to 3.84 µg/mL (≈ 8.47 µM) in data set [4] (water, 25 °C, water, thermodynamic from solid, Water, R.T. (25° C.), read-out: solubility); 3.87 µg/mL (≈ 8.53 µM) in data set [4] (water, 37 °C, water, thermodynamic from solid, Water, 37° C., read-out: solubility); 2.24 µg/mL (≈ 4.94 µM) in data set [4] (water, 75 °C, water, thermodynamic from solid, Water, 75° C., read-out: solubility); 4.63 µg/mL (≈ 10.2 µM) in data set [4] (water, thermodynamic from solid, Water, Ultrasonic, read-out: solubility). The “solid-form stability, change of XRD after accelerated stability test” value in data set [5] was “barely no change; also recorded: stable”.
As for `COc1ncc(-c2ccc3ncc(C#N)c(N4CCOC[C@H]4C)c3c2)cc1NS(C)(=O)=O` [crystal form II, (R)-N-(5-(3-cyano-4-(3-methylmorpholinyl)quinolin-6-yl)-2-methoxypyridin-3-yl)methanesulfonamide], in data set [1], the “solid-form stability, change of XRD after high temperature test” value was “barely no change; also recorded: stable”. The “solid-form stability, change of XRD after high humidity test” value in data set [2] is recorded as “barely no change; also recorded: stable”. In addition, the “solid-form stability, change of XRD after accelerated stability test” value in data set [5] is on record as “barely no change; also recorded: stable”.
Take `COc1ncc(-c2ccc3ncc(C#N)c(N4CCOC[C@H]4C)c3c2)cc1NS(C)(=O)=O` [crystal form IV, (R)-N-(5-(3-cyano-4-(3-methylmorpholinyl)quinolin-6-yl)-2-methoxypyridin-3-yl)methanesulfonamide]: the “solid-form stability, change of XRD after high temperature test” value in data set [1] is listed as “barely no change; also recorded: stable”. Also, the Stability result in data set [3] (setting [6]), in data set [3] (Simulated gastric fluid (SGF)), in data set [3] (setting [7]), in data set [3] (Water), in data set [3] (setting [8]) and in data set [3] (setting [9]) was “Stable within” in each case. In addition, the Stability result in data set [3] (pH 6.8 PBS solution) is given as “Stable within”. The “solid-form stability, change of XRD after high humidity test” value in data set [2] is “barely no change; also recorded: stable”. Further, the solubility was 4.70 µg/mL (≈ 10.4 µM) in data set [4] (Simulated fasting intestinal fluid (FaSSIF), 37° C.); 5.12 µg/mL (≈ 11.3 µM) in data set [4] (Simulated fasting intestinal fluid (FaSSIF), 75° C.); 6.05 µg/mL (≈ 13.3 µM) in data set [4] (setting [10]); 5.43 µg/mL (≈ 12 µM) in data set [4] (Simulated fasting intestinal fluid (FaSSIF), Ultrasonic); 655.37 µg/mL (≈ 1450 µM) in data set [4] (setting [11]); 766.58 µg/mL (≈ 1690 µM) in data set [4] (Simulated gastric fluid (SGF), 75° C.). In addition, the solubility in data set [4] (setting [12]) is 533.36 µg/mL (≈ 1180 µM); in data set [4] (setting [13]), 570.49 µg/mL (≈ 1260 µM); in data set [4] (setting [14]), 26.02 µg/mL (≈ 57.4 µM); in data set [4] (Simulated postprandial intestinal fluid (FeSSIF), 75° C.) it was 28.48 µg/mL (≈ 62.8 µM); in data set [4] (setting [15]) it was 31.70 µg/mL (≈ 69.9 µM); in data set [4] (setting [16]), 29.70 µg/mL (≈ 65.5 µM). The solubility is 2.39 µg/mL (≈ 5.27 µM) in data set [4] (Water, 37° C.); 2.98 µg/mL (≈ 6.57 µM) in data set [4] (Water, 75° C.); 2.68 µg/mL (≈ 5.91 µM) in data set [4] (Water, R.T. (25° C.)); 2.96 µg/mL (≈ 6.53 µM) in data set [4] (Water, Ultrasonic); 1431.40 µg/mL (≈ 3160 µM) in data set [4] (setting [17]); 1516.50 µg/mL (≈ 3340 µM) in data set [4] (pH 1.2 hydrochloric acid solution, 75° C.). In addition, the solubility was 1283.50 µg/mL (≈ 2830 µM) in data set [4] (setting [18]); 1289.40 µg/mL (≈ 2840 µM) in data set [4] (setting [19]); 3.04 µg/mL (≈ 6.7 µM) in data set [4] (pH 4.5 acetic acid-sodium acetate solution, 37° C.); 3.45 µg/mL (≈ 7.61 µM) in data set [4] (setting [20]); 2.75 µg/mL (≈ 6.06 µM) in data set [4] (setting [21]); 3.04 µg/mL (≈ 6.7 µM) in data set [4] (pH 4.5 acetic acid-sodium acetate solution, Ultrasonic). Besides, the solubility in data set [4] (pH 6.8 PBS solution, 37° C.) came to 2.18 µg/mL (≈ 4.81 µM); in data set [4] (pH 6.8 PBS solution, 75° C.) it was 2.62 µg/mL (≈ 5.78 µM); in data set [4] (pH 6.8 PBS solution, R.T. (25° C.)) it was 2.12 µg/mL (≈ 4.67 µM); in data set [4] (pH 6.8 PBS solution, Ultrasonic), 2.48 µg/mL (≈ 5.47 µM). Also, in data set [5], the “solid-form stability, change of XRD after accelerated stability test” value is recorded as “barely no change; also recorded: stable”.

These data come from US20230029066A1, “CRYSTAL FORMS OF FUSED RING COMPOUND, AND COMPOSITION THEREOF, PREPARATION METHOD THEREFOR AND APPLICATION THEREOF” (HANGZHOU YUSHENG MEDICAL TECHNOLOGY CO. LTD, priority 2019, published 2023).
